Consider 18 molecules from patent publication EP0105732A2, “Histamine H2 receptor antagonists of the benzisothiazole amino and benzthiadiazine amino series” (BEECHAM GROUP PLC, priority 1982, dated 1984).

The subject of assay [1] is gastric acid secretion. The assay can be described thus: perfused rat stomach preparation (histamine-stimulated acid secretion, anaesthetised rat). Type of assay: in vivo. The conditions noted are these: bolus intravenous, maximal reduction in hydrogen-ion concentration as percentage of control, histamine infusion; for inhibition in vivo at 0.2 µmol/kg: dose 0.2 µmole/kg; for inhibition in vivo at 1 µmol/kg: dose 1 µmole/kg; for inhibition in vivo at 0.5 µmol/kg: dose 0.5 µmole/kg; for inhibition in vivo at 0.1 µmol/kg: dose 0.1 µmole/kg. How it is done:
The ability of the compounds of the invention to modify the pH of gastric acid secretion was investigated as follows:
The modified (1) perfused stomach preparation (2) of the urethane (25% solution) anaesthetised rat, maintained at 37°C, allows the continuous measurement of pH during basal and stimulated acid secretion.
The lumen of the stomach of male Wistar rats (approximately 200 g bodyweight) was perfused, via a cannula designed to reduce the dead space of the stomach, with 5% glucose solution (37°C) at the rate of 3 ml/min. The perfusate was forced over the surface of the secretory mucosa only, the antrum being excluded. The effluent then passed over a microflow-type glass pH eletrode via a collecting funnel situated in the non- glandular forestomach.
The secretagogue histamine was administered as a constant intravenous infusion to produce a steady rate of acid secretion. Test compounds were administered in solution as bolus intravenous injections and any effect on the pH of the perfusate noted. The perfusate pH was recorded on a potentiometric recorder and anti-secretory responses were measured in terms of the maximal reduction in hydrogen-ion concentration expressed as a percentage of the control concentration.

In assay [2] the target is T1, histamine H2-receptor (Cavia porcellus, UniProt P47747).
T1 construct: The atria were dissected free and mounted in a jacketed 5 ml capacity tissue bath; from tissue; host or cells: guinea-pig isolated atria
T1 sequence (P47747 whole entry): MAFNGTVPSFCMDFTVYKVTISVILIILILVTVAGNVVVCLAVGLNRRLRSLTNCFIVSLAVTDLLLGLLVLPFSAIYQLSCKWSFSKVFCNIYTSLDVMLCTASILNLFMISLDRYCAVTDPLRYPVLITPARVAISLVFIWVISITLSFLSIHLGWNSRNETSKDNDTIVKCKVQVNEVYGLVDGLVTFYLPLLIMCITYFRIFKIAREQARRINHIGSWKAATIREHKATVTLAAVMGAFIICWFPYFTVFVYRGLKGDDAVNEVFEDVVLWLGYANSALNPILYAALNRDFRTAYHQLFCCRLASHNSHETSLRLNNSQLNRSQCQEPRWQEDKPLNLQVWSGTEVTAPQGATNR
Kind of assay: Guinea-pig isolated atria (antagonism of histamine positive chronotropic response). Type of assay: cell-based. How it is done: This test is designed to specifically detect histamine H2-receptor antagonists. Guinea-pigs of either sex, weighing between 250 and 500 g, were killed by cervical dislocation and exsanguination. The heart was removed and placed in cold McEwens solution. The atria were dissected free and mounted in a jacketed 5 ml capacity tissue bath containing McEwens solution maintained at 32 °C and gassed with a 95% oxygen, 5% carbon dioxide gas mixture. Atrial beating was detected by an auxotonic lever and from thence recorded on a Devices MX2 hot wire pen recorder. Atrial rate was derived from the amplified force signal using a Devices Instantaneous Ratemeter and recorded on the MX2 pen recorder. […] To avoid disruption of the tissue by repeated washing, responses to cumulative concentrations of histamine were obtained in the absence (control) and then presence of various concentrations of test compounds. The ability to antagonise histamine mediated positive chronotropic responses of this tissue is believed to be specific for H2-receptor antagonists. Such activity was assessed by examining the ability of test compounds to shift to the right the plotted concentration/response curves to histamine.

Where [3] appears, read: Concentration 7.5 x 10^-8 Molar, 0.075 µM.
Setting [4] is: Concentration 5 x 10^-7 Molar, 0.5 µM.
Setting [5] is: Concentration 2.5 x 10^-7 Molar, 0.25 µM.

What is called inhibition in vivo is the change of the read-out against control, counted positive when it falls. As for `CN(C)Cc1ccc(CSCCNC2=NS(=O)(=O)c3cccc([N+](=O)[O-])c32)o1` [Example 1, N-[2-(5-dimethylaminomethylfuran-2-ylmethylthio)ethyl]4-nitro-1,2-benzoisothiazole-3-amine-1,1-dioxide], the inhibition in vivo at 0.2 µmol/kg in assay [1] came to 87%. Further, the “Activity (Decrease in Histamine Potency)” value in assay [2] (Concentration 7.5 x 10^-7 Molar, 0.75 µM) is on record as “Active”.
In assay [1], `CN(C)Cc1ccc(CSCCNC2=NS(=O)(=O)c3cccc(N)c32)o1` [Example 2, N^3-[2-(5-dimethylaminomethylfuran-2-ylmethylthio)ethyl]1,2-benzoisothiazole-3,4-diamine-1,1-dioxide] had an inhibition in vivo at 0.2 µmol/kg of 100%. Further, the “Activity (Decrease in Histamine Potency)” value in assay [2] (setting [3]) was “Active”.
Consider `CN(C)Cc1ccc(CSCCNC2=NS(=O)(=O)c3ccccc32)o1` [Example 3, N-[2-(5-dimethylaminomethylfuran-2-ylmethylthio)ethyl]-1,2-benzoisothiazole-3-amine-l,1-dioxide], for which the inhibition in vivo at 1 µmol/kg in assay [1] came to 100%. Further, the “Activity (Decrease in Histamine Potency)” value in assay [2] (setting [4]) was “Active”.
In assay [1] (dose 2 µmole/kg), `CN(C)Cc1ccc(CSCCNC2=NS(=O)(=O)c3ccc([N+](=O)[O-])cc32)o1` [Example 5, N-[2-(5-dimethylaminomethylfuran-2-ylmethylthio)ethyl] 5-nitro-1,2-benzoisothizaole-3-amine-1,1-dioxide] yielded an inhibition in vivo at 2 µmol/kg of 80%.
`CN(C)Cc1ccc(CSCCNC2=NS(=O)(=O)c3cc([N+](=O)[O-])ccc32)o1` [Example 6]: the inhibition in vivo at 1 µmol/kg in assay [1] was 75%. In addition, the “Activity (Decrease in Histamine Potency)” value in assay [2] (setting [4]) is reported as “Active”.
`CN(C)Cc1ccc(CSCCNC2=NS(=O)(=O)c3c2cccc3[N+](=O)[O-])o1` [Example 7, N-2-(5-dimethylamihomethylfuran-2-ylmethylthioethyl] -7-nitro-1,2-benzoisothizaole-3-amine-1,1-dioxide]: the inhibition in vivo at 0.5 µmol/kg in assay [1] worked out at 68%.
Molecule `CN(C)Cc1ccc(CSCCNC2=NS(=O)(=O)c3cc(Cl)ccc32)o1` [Example 8, N-[2-(5-dimethylaminomethylfuran-2-ylmethylthio)ethyl]-6-chloro-1,2benzoisothiazole-3-amine-1,1-dioxide] had an inhibition in vivo at 5 µmol/kg in assay [1] (dose 5 µmole/kg) of 75%. The “Activity (Decrease in Histamine Potency)” value in assay [2] (Concentration 1 x 10^-5 Molar, 10 µM) is “Active”.
As for `CN(C)Cc1ccc(CSCCNC2=NS(=O)(=O)c3cc(S(=O)(=O)N(C)C)ccc32)o1` [Example 9, N-[2-(5-Dimethylaminomethylfuran-2-ylmethylthio)ethyl] -6-dimethylsulphamoyl-1,2-benzoisothizaole-3-amine-1,1-dioxide], the inhibition in vivo at 0.1 µmol/kg in assay [1] was 89%.
For `O=S1(=O)N=C(NCCCOc2cccc(CN3CCCCC3)c2)c2ccccc21` [Example 10, N-[3-(3-piperid-1-ylmethylphenoxy)propyl]-1,2-henzoiso-thiazole-3-amine-1,1-dioxide], the inhibition in vivo at 0.5 µmol/kg in assay [1] was determined as 100%. Also, in assay [2] (setting [5]), the “Activity (Decrease in Histamine Potency)” value is “Active”.
For `O=[N+]([O-])c1cccc2c1C(NCCCOc1cccc(CN3CCCCC3)c1)=NS2(=O)=O` [Example 11, N-[3-(3-piperid-1-ylmethylphenoxy)propyl]-4-nitro-1,2-benzoisothiazole-3-amine-1,1-dioxide], the inhibition in vivo at 0.5 µmol/kg in assay [1] came to 100%. In assay [2] (Concentration 1 x 10^-7 Molar, 0.1 µM), the “Activity (Decrease in Histamine Potency)” value is reported as “Active”.
Turning to `CN(C)Cc1cccc(OCCCNC2=NS(=O)(=O)c3ccccc32)c1` [Example 12, N-[3-(3-dimethylaminomethylphenoxy)propyl]-1,2-benzoiso-thiazole-3-amine-1,1-dioxide], the inhibition in vivo at 0.5 µmol/kg in assay [1] stood at 94%. The “Activity (Decrease in Histamine Potency)” value in assay [2] (Concentration 1 x 10^-6 Molar) is “Active”.
With `N=C(N)Nc1nc(CSCCNC2=NS(=O)(=O)c3cccc([N+](=O)[O-])c32)cs1` [Example 13, N-[2-(2-guanidinothiazol-4-ylmethylthio)ethyl]-4-nitro-1,2-benzoisothiazole-3-amine-1,1-dioxide], in assay [2] (Concentration 1 x 10^-6 Molar), the “Activity (Decrease in Histamine Potency)” value is listed as “Active”.
`CN(C)Cc1ccc(CSCCNC2=NS(=O)(=O)c3cc(N)ccc32)o1` [Example 14, N^3-[2-(5-dimethylaminomethylfuran-2-ylmethylthio)ethyl]-1,2-benzoisothiazole-3,6-diamine-1,1-dioxide] showed an inhibition in vivo at 0.2 µmol/kg in assay [1] of 60%. Also, the “Activity (Decrease in Histamine Potency)” value in assay [2] (setting [4]) is recorded as “Active”.
Take `CN(C)Cc1ccc(CSCCNC2=NS(=O)(=O)c3c(N)cccc32)o1` [Example 15, N^3-[2-(5-dimethylaminomethylfuran-2-lmethylthio)ethyl]-1,2-benzoisothiazole-3,7-diamine-1,1dioxide]: the inhibition in vivo at 0.4 µmol/kg in assay [1] (dose 0.4 µmole/kg) was found to be 60%.
The molecule `Nc1cccc2c1C(NCCCOc1cccc(CN3CCCCC3)c1)=NS2(=O)=O` [Example 16, N^3-[3-(3-piperid-1-ylmethylphenoxy)propyl]-1,2-benzoiso-thiazole-3,4-diamine-1,1-dioxide] yielded an inhibition in vivo at 0.1 µmol/kg in assay [1] of 100%. The “Activity (Decrease in Histamine Potency)” value in assay [2] (setting [3]) is “Active”.
In assay [1], `NC(N)=Nc1nc(CSCCNC2=NS(=O)(=O)c3cccc(N)c32)cs1` [Example 20, N^3-[2-('2-guanidinothiazole-4-ylmethylthio)ethyl]-1,2-benzoisothiazole-3,4-diamine-1,1-dixide] showed an inhibition in vivo at 0.2 µmol/kg of 100%. The “Activity (Decrease in Histamine Potency)” value in assay [2] (setting [5]) is “Active”.
The molecule `CN(C)Cc1ccc(CSCCNC2=Nc3ccccc3S(=O)(=O)N2)o1` [Example 39, N-[2-({5-Dimethylaminomethylfuran-2-yl)methylthio)ethyl] 1,2,4-benzothiadiazine-3-amine-1,1-dioxide] yielded an inhibition in vivo at 0.5 µmol/kg in assay [1] of 78%. Also, the “Activity (Decrease in Histamine Potency)” value in assay [2] (Concentration 1 x 10^-6 Molar) is “Active”.
Molecule `O=S1(=O)NC(NCCCOc2cccc(CN3CCCCC3)c2)=Nc2ccccc21` [Example 40, N-[3-(3-{1-piperidylmethyl}phenoxy)propyl]-1,2,4-benzothia-diazine-3-amine-1,1-dioxide] yielded an inhibition in vivo at 0.5 µmol/kg in assay [1] of 94%.
